Data taken from the supplement of paper PMC3937590.

Assays:
Experiment in all cases: -log10 GI50 (growth inhibition 50%) (-log10(M)); higher = more potent growth inhibition
[1] = system: BT483
How it was run: (§1)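 Breast cancer cell lines were treated with each compound for 72 hours at nine doses in 1:5 serial dilution, in triplicate, and luminescence was read against a time-zero plate. A Gompertz curve was fitted to the dose-response data by nonlinear least squares to obtain GI50, the molar concentration giving the set level of growth inhibition, which is reported as its negative logarithm. The logarithm is base 10, and values equal to the top dose carry a < qualifier.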

[2] = system: HBL100
How it was run: as §1

[3] = system: HCC1143
How it was run: as §1

[4] = system: HCC1428
How it was run: as §1

[5] = system: HCC1806
How it was run: as §1

[6] = system: HCC202
How it was run: as §1

[7] = system: HCC3153
How it was run: as §1

[8] = system: MDAMB436
How it was run: as §1

[9] = system: MDAMB468
How it was run: as §1

[10] = system: S1
How it was run: as §1

[11] = system: SKBR3
How it was run: as §1

[12] = system: SUM102PT
How it was run: as §1

[13] = system: T4
How it was run: as §1

[14] = system: UACC893
How it was run: as §1

[15] = system: ZR751
How it was run: as §1

[16] = system: ZR7530
How it was run: as §1

[17] = system: BT20
How it was run: as §1

[18] = system: SUM225CWN
How it was run: as §1

Row | Structure (SMILES) | -log10 GI50 [1] | -log10 GI50 [2] | -log10 GI50 [3] | -log10 GI50 [4] | -log10 GI50 [5] | -log10 GI50 [6] | -log10 GI50 [7] | -log10 GI50 [8] | -log10 GI50 [9] | -log10 GI50 [10] | -log10 GI50 [11] | -log10 GI50 [12] | -log10 GI50 [13] | -log10 GI50 [14] | -log10 GI50 [15] | -log10 GI50 [16] | -log10 GI50 [17] | -log10 GI50 [18]
1 | N.N.[Cl][Pt][Cl] [Cisplatin] | 4.05 | 5.05 | 5.04 | 4.33 | 5.68 | 6.06 | 5.12 | 5 | 5.27 | 5.45 | 4.77 | < 3.3 | 5.02 | 3.76 | 4.99 | 5.58 | – | –
2 | CC(=O)O[C@@]12CO[C@@H]1C[C@H](O)[C@@]1(C)C(=O)[C@H](O)C3=C(C)[C@@H](OC(=O)[C@H](O)[C@@H](NC(=O)OC(C)(C)C)c4ccccc4)C[C@@](O)([C@@H](OC(=O)c4ccccc4)[C@H]21)C3(C)C [Docetaxel] | 7.65 | 8.75 | 8.06 | 7.77 | 8.62 | 8.63 | 8.01 | 8.07 | 8.64 | 8.33 | 8 | – | 8.77 | 7.77 | 7.74 | 8.4 | – | –
3 | COc1cccc2c1C(=O)c1c(O)c3c(c(O)c1C2=O)C[C@@](O)(C(=O)CO)C[C@@H]3O[C@H]1C[C@H](N)[C@H](O)[C@H](C)O1 [Doxorubicin] | 7 | 7.37 | 6.6 | 5.92 | 6.79 | 6.61 | 6.48 | 6.29 | 6.13 | 6.09 | 6.9 | 6.61 | 6.9 | 6.14 | 6.87 | 6.96 | – | –
4 | COc1cccc2c1C(=O)c1c(O)c3c(c(O)c1C2=O)C[C@@](O)(C(=O)CO)C[C@@H]3O[C@H]1C[C@H](N)[C@@H](O)[C@H](C)O1 [Epirubicin] | 6.78 | 6.88 | 6.58 | 5.88 | 6.78 | 6.26 | 6.19 | 5.92 | 6.15 | 6.42 | – | – | – | 6.11 | 6.6 | – | – | –
5 | O=c1[nH]cc(F)c(=O)[nH]1 [Fluorouracil] | 4.48 | 4.15 | 3.76 | 4.99 | 4.61 | 4.77 | 3.45 | 2.97 | 3.62 | 3.9 | 4.48 | – | – | 3.45 | 4.52 | – | – | –
6 | COc1cc2ncnc(Nc3ccc(F)c(Cl)c3)c2cc1OCCCN1CCOCC1 [Gefitinib] | 5.21 | 4.94 | 4.93 | 4.97 | 5.31 | 6.45 | < 4.48 | < 4.48 | 4.72 | 6.57 | 5.56 | 5.73 | – | 5.94 | < 4.48 | – | – | –
7 | COC1=C2C[C@@H](C)C[C@H](OC)[C@H](O)[C@@H](C)/C=C(\C)[C@H](OC(N)=O)[C@@H](OC)/C=C\C=C(/C)C(=O)NC(=CC1=O)C2=O [Geldanamycin] | 6.84 | 7.6 | 7.1 | 7.55 | 7.12 | 8.4 | 7.18 | 7.15 | 7.74 | 8.82 | 7.79 | 8.48 | 8.22 | 8.14 | 7.06 | 8.15 | – | –
8 | Nc1ccn([C@@H]2O[C@H](CO)[C@@H](O)C2(F)F)c(=O)n1 [Gemcitabine] | – | 7.64 | 7.92 | 3.58 | 8.72 | 4.82 | 7.19 | 7.49 | 7.01 | 7.04 | 7.97 | – | – | 3.54 | 7.45 | – | – | –
9 | O=C(O)C(=O)O.[NH-][C@@H]1CCCC[C@H]1[NH-].[Pt+2] [Oxaliplatin] | 4.56 | 5.65 | 4.7 | 5.09 | 5.45 | 5.27 | 5.19 | 4.46 | – | 4.68 | 5.7 | – | 5.21 | 3.83 | 5.61 | < 3.2 | – | –
10 | CC(=O)O[C@H]1C(=O)[C@@]2(C)[C@H]([C@H](OC(=O)c3ccccc3)[C@]3(O)C[C@H](OC(=O)[C@H](O)[C@@H](NC(=O)c4ccccc4)c4ccccc4)C(C)=C1C3(C)C)[C@]1(OC(C)=O)CO[C@@H]1C[C@@H]2O [Paclitaxel] | 7 | 8.35 | 7.8 | 7.58 | 8.11 | 8.1 | 7.7 | 7.65 | 8.06 | 7.84 | 7.94 | – | 8.04 | 7.93 | 7.76 | 7.66 | – | –
11 | CO[C@H]1C[C@@H]2CC[C@@H](C)[C@@](O)(O2)C(=O)C(=O)N2CCCC[C@H]2C(=O)O[C@H]([C@H](C)C[C@@H]2CC[C@@H](O)[C@H](OC)C2)CC(=O)[C@H](C)/C=C(\C)[C@@H](O)[C@@H](OC)C(=O)[C@H](C)C[C@H](C)/C=C/C=C/C=C/1C [Rapamycin] | 8.78 | 4.24 | 6.27 | 7.29 | 4.01 | 8.24 | 5.25 | 3.85 | 4.75 | – | 8.09 | – | – | < 3.78 | – | – | 7.17 | 7.97
12 | CC[C@@]1(O)C(=O)OCc2c1cc1n(c2=O)Cc2cc3c(CN(C)C)c(O)ccc3nc2-1 [Topotecan] | 7.38 | 7.87 | 6.58 | 6.35 | 7.69 | 6.08 | 6.68 | 7.65 | 7.66 | 4.63 | 7.95 | 6.12 | – | 6.59 | 7.16 | – | – | –
13 | CCC1=C[C@@H]2CN(C1)Cc1c([nH]c3ccccc13)[C@@](C(=O)OC)(c1cc3c(cc1OC)N(C)[C@H]1[C@@](O)(C(=O)OC)[C@H](OC(C)=O)[C@]4(CC)C=CCN5CC[C@]31[C@@H]54)C2 [Vinorelbine] | 8.14 | 8.02 | 6.49 | 5.66 | 7.97 | 7.89 | 7.29 | 7.57 | 8.01 | 8.34 | 7.83 | – | – | 7.96 | 7.37 | – | – | –
